The values that follow come from patent US12285012B2, “Compositions comprising pyridine carboxylate herbicides with acetolactate synthase (ALS) inhibitor herbicides” (Corteva Agriscience LLC, priority 2018, dated 2025).

Data set [1] concerns chickweed (STEME, Stellaria media). Nature of the data set: Greenhouse postemergence herbicidal effect. The class given is in vivo. As to conditions: for Obs % visual injury: STEME. Summed up:
(§1)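 Plants at the second or third true leaf stage, grown at about 23/22 °C day/night with a 14 h photoperiod, were sprayed postemergence. Emulsifiable concentrates held cloquintocet-mexyl safener at 120 g ai/L; rates are g ae/ha (pyridine carboxylate) or g ai/ha (ALS inhibitor). Injury was scored visually against solvent-blank controls at 20-22 d (0-100%).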

For data set [2], the system named is wild pansy (VIOTR, Viola tricolor). Put plainly: Greenhouse postemergence herbicidal effect. The class given is in vivo. The following applies: for Obs % visual injury: VIOTR. Summed up:
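Injury was rated visually after 20-22 d on a 0 (none) to 100% (complete kill) scale relative to solvent-sprayed controls, with sub-irrigation to avoid wash-off. Rates were given in g ae/ha or g ai/ha depending on component.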

In data set [3] the test system is winter rape (BRSNW, Brassica napus). Nature of the data set: Greenhouse postemergence herbicidal effect. In kind it is in vivo. The following applies: for Obs % visual injury: BRSNW. Summed up: as §1
Data set [4] has as its system broad-leaf dock (RUMOB, Rumex obtusifolius). Put plainly: Greenhouse postemergence herbicidal effect. The class given is in vivo. As to conditions: for Obs % visual injury: RUMOB. The text has this:
(§2) Seeds of the desired test plant species were planted in a 90:10% v/v (volume/volume) mixture of PRO-MIX® BX (Premier Tech Horticulture, Quakertown, PA, USA) and PROFILE® GREENS GRADE™ (Profile Products LLC, Buffalo Grove, IL, USA) planting mixture, which typically has a pH of 5.2 to 6.2 and an organic matter content of at least 50 percent, in plastic pots with a surface area of 103.2 square centimeters (cm^2). In some aspects, to ensure good germination and healthy plants, a fungicide treatment and/or other chemical or physical treatment was applied. The plants were grown for 7-36 days (d) in a greenhouse with an approximate 14-hour (h) photo-period which was maintained at about 23° C. during the day and 22° C. during the night. Nutrients and water were added on a regular basis and supplemental lighting was provided with overhead metal halide 1000-Watt lamps as necessary. The plants were employed for testing when they reached the second or third true leaf stage.
(§3) Emulsifiable concentrates of each of each pyridine carboxylate herbicide (Compound A or Compound B) were prepared at 100 grams acid equivalent per liter (g ae/L). The emulsifiable concentrates also included a safener, cloquintocet-mexyl, at 120 grams active ingredient per liter (g ai/L), unless otherwise noted below. An aliquot of each emulsifiable concentrate was placed in a 25 mL glass vial and diluted with an aqueous mixture of 1.25% (v/v) ACTIROB® B esterified rapeseed oil (Bayer Crop Science, Research Triangle Park, NC, USA) or MSO® Concentrate with LECI-TECH® methylated soybean oil (Loveland Products, Loveland, CO, USA) to obtain concentrated stock solutions at the highest application rate for each herbicide, based upon a 12 milliliter (mL) application volume at a rate of 187 liters per hectare (L/ha). The concentrated stock solutions were further diluted with an aqueous mixture of 1.25% v/v ACTIROB® B or MSO® Concentrate with LECI-TECH® to obtain stock solutions at reduced application rates for each herbicide. Spray solutions of the herbicide combinations (Compound A or Compound B plus ALS herbicide) were prepared by adding weighed amounts or aliquots of the ALS herbicides to the stock solutions of Compound A or Compound B to form 12-mL spray solutions in two- or three-way combinations.
(§4) The spray solutions were applied to the plant material with an overhead Mandel track sprayer equipped with 8002E nozzles calibrated to deliver 187 L/ha over an application area of 0.503 square meters (m^2) at a spray height of 18 inches (43 centimeters (cm)) above the average plant canopy. Control plants were sprayed in the same manner with the solvent blank. All pyridine carboxylate herbicide (component a) application rates are given as “g ae/ha” and all ALS inhibitor (component b) application rates are given as “g ai/ha.”
(§5) The treated plants and control plants were placed in a greenhouse as described above and watered by sub-irrigation to prevent wash-off of the test compounds. After 20-22 d, the condition of the test plants as compared with that of the control plants was determined visually and scored on a scale of 0 to 100 percent where 0 corresponds to no injury and 100 corresponds to complete kill.

For data set [5], the system named is common sunflower (HELAN, Helianthus annuus). Put plainly: Greenhouse postemergence herbicidal effect. The class given is in vivo. The following applies: 10 g/ha.
Source text: as §2, §3, §4, §5

For data set [6], the system named is ivyleaf morningglory (IPOHE, Ipomoea hederacea). Put plainly: Greenhouse postemergence herbicidal effect. In kind it is in vivo. The following applies: 10 g/ha.
Source text: as §2, §3, §4, §5

Data set [7] concerns large crabgrass (DIGSA, Digitaria sanguinalis). Put plainly: Greenhouse postemergence herbicidal effect. In kind it is in vivo. The following applies: DIGSA.
Source text: as §2, §3, §4, §5

Data set [8] relates to soybean (GLXMA, Glycine max). Nature of the data set: Greenhouse postemergence herbicidal effect. As to conditions: 10 g/ha. In kind it is in vivo.
Source text: as §2, §3, §4, §5

Data set [9] deals with velvetleaf (ABUTH, Abutilon theophrasti). Nature of the data set: Greenhouse postemergence herbicidal effect. In kind it is in vivo. The following applies: 10 g/ha.
Source text: as §2, §3, §4, §5

The test system of data set [10] is corn poppy (PAPRH, Papaver rhoeas). Nature of the data set: Greenhouse postemergence herbicidal effect. As to conditions: Florasulam 5 g/ha. The class given is in vivo. Summed up: as §1
Data set [11] has as its system false chamomile (MATIN, Matricaria inodora). Put plainly: Greenhouse postemergence herbicidal effect. In kind it is in vivo. The following applies: Florasulam 5 g/ha. In short, it runs like this: as §1
Data set [12] relates to field chamomile (ANTAR, Anthemis arvensis). Put plainly: Greenhouse postemergence herbicidal effect. In kind it is in vivo. As to conditions: Florasulam 5 g/ha. Summed up: as §1
For data set [13], the system named is ivyleaf speedwell (VERHE, Veronica hederifolia). Nature of the data set: Greenhouse postemergence herbicidal effect. The following applies: Florasulam 5 g/ha. The class given is in vivo. In short, it runs like this: as §1
Data set [14] has as its system shepherd's purse (CAPBP, Capsella bursa-pastoris). Put plainly: Greenhouse postemergence herbicidal effect. As to conditions: Florasulam 5 g/ha. In kind it is in vivo. In short, it runs like this:
as §1

Data set [15] deals with wild mustard (SINAR, Sinapis arvensis). Put plainly: Greenhouse postemergence herbicidal effect. In kind it is in vivo. Summed up:
as §1

The next data set concerns winter wheat (TRZAW). Put plainly: Greenhouse postemergence crop phytotoxicity. In kind it is in vivo, Triticum aestivum. The following applies: Florasulam 5 g/ha.
Source text: as §2
as §3, with “combinations. […]” for “combinations.”
as §5

For a further data set, the system named is winter barley (HORVW). Nature of the data set: Greenhouse postemergence crop phytotoxicity. The class given is in vivo, Hordeum vulgare. As to conditions: Florasulam 5 g/ha.
Source text: as §2
as §3, with “combinations. […]” for “combinations.”
as §5

`C#CCOC(=O)c1nc(-c2ccc3cc[nH]c3c2F)c(F)c(N)c1Cl` [Compound B, propargyl 4-amino-3-chloro-5-fluoro-6-(7-fluoro-1H-indol-6-yl)pyridine-2-carboxylate]: the “% visual injury, Obs” value in [1] (10 g/ha) was 90%; in [2] (10 g/ha), 8%; in [4] (10 g/ha), 15%; in data set [5], 100%; in [6], 0%; in [8], 73%. Also, in data set [9], the “% visual injury, Obs” value is given as 68%. The “Obs % visual injury” value in data set [1] (Compound B 5 g/ha) worked out at 85%; in data set [1] (Compound B 10 g/ha), 95%; in data set [2] (Compound B 5 g/ha), 20%; in data set [2] (Compound B 10 g/ha), 18%; in data set [3] (Compound B 10 g/ha), 93%; in [4] (Compound B 5 g/ha), 23%. Besides, the “Obs % visual injury” value in data set [4] (Compound B 10 g/ha) is 18%; in data set [7] (Compound B 5 g/ha), 50%; in [7] (Compound B 10 g/ha), 63%.

With `COc1ncc(F)c2nc(S(=O)(=O)Nc3c(F)cccc3F)nn12` [Florasulam, florasulam], the “% visual injury” value in data set [1] (Florasulam 5 g/ha) was 100%; in [10], 97%; in [11], 100%; in data set [12], 70%; in [13] it was 5%; in data set [14] it was 80%. Further, the “% visual injury” value in [15] (Florasulam 5 g/ha) amounted to 95%; in [2] (Florasulam 5 g/ha) it was 10%; in data set [3] (Florasulam 5 g/ha), 97%; with winter wheat (TRZAW) it was 0%; in the data set on winter barley (HORVW), 0%. Besides, the “% visual injury Obs” value in data set [15] (Florasulam 3.75 g/ha) was determined as 85%; in data set [3] (Florasulam 3.75 g/ha), 95%. Moreover, the “Obs % visual injury” value in data set [3] (Florasulam 5 g/ha) is 35%.
